Assay results reported in patent US7279494B2, “Antimicrobial [3.1.0] bicyclohexylphenyl-oxazolidinone derivatives and analogues” (Pfizer Inc., priority 2003, dated 2007).
In brackets after ≈: the same amount, converted by molar mass.

What was measured:
Assay type in all cases: cell-based
H. influenzae 30063 = assay: MIC by standard agar dilution, H. influenzae 30063; settings: Haemophilus influenzae, 30063, agar dilution, Mueller Hinton agar, incubated overnight at 35° C.; read-out: H. influenzae 30063 MIC
From the text: (§1) The in vitro activity of compounds of the subject invention may be assessed by standard testing procedures such as the determination of minimum inhibitory concentration (MIC) by agar dilution as described in “Approved Standard. Methods for Dilution Antimicrobial Susceptibility Tests for Bacteria that Grow Aerobically,” 3rd ed., published 1993 by the National Committee for Clinical Laboratory standards, Villanova, Pa., USA.
(§2) The in vitro MICs of test compounds may be determined by a standard agar dilution method. A stock drug solution of each analog is prepared in a preferred solvent, usually DMSO:H2O (1:3). Serial 2-fold dilutions of each sample are made using 1.0 mL aliquots of sterile distilled water. To each 1.0 mL aliquot of drug is added 9 mL of molten Mueller Hinton agar medium. The drug-supplemented agar is mixed, poured into 15×100 mm petri dishes, and allowed to solidify and dry prior to inoculation.
(§3) Vials of each of the test organisms are maintained frozen in the vapor phase of a liquid nitrogen freezer. Test cultures are grown overnight at 35° C. on the medium appropriate for the organism. Colonies are harvested with a sterile swab, and cell suspensions are prepared in Trypticase Soy broth (TSB) to equal the turbidity of a 0.5 McFarland standard. A 1:20 dilution of each suspension is made in TSB. The plates containing the drug supplemented agar are inoculated with a 0.001 mL drop of the cell suspension using a Steers replicator, yielding approximately 10^4 to 10^5 cells per spot. The plates are incubated overnight at 35° C.
(§4) Following incubation the Minimum Inhibitory Concentration (MIC μg/mL), the lowest concentration of drug that inhibits visible growth of the organism, is read and recorded.

S. aureus UC9213 = assay: MIC by standard agar dilution, S. aureus UC9213; settings: Staphylococcus aureus, UC9213, Mueller Hinton agar, incubated overnight at 35° C.
From the text: as §1, §2, §3, §4

S. pneumoniae UC9912 = assay: MIC by standard agar dilution, S. pneumoniae UC9912; settings: Streptococcus pneumoniae, UC9912, Mueller Hinton agar, incubated overnight at 35° C.
From the text: as §1, §2, §3, §4

SMILES | MIC (H. influenzae 30063) | MIC (S. aureus UC9213) | MIC (S. pneumoniae UC9912)
CC(=O)NC[C@H]1CN(c2ccc([C@H]3[C@@H]4CN(CCF)C[C@@H]43)c(F)c2)C(=O)O1 [Example 46, N-[((5S)-3-{3-fluoro-4-[exo-(1R,5S)-3-(2-fluoroethyl)-3-azabicyclo[3.1.0]hex-6-yl]phenyl}-2-oxo-1,3-oxazolidin-5-yl)methyl]acetamide] | 16 µg/mL (≈ 42.2 µM) | 8 µg/mL (≈ 21.1 µM) | 2 µg/mL (≈ 5.27 µM)
CC(=O)NC[C@H]1CN(c2ccc([C@H]3[C@@H]4CN(CCO)C[C@@H]43)c(F)c2)C(=O)O1 [Example 47, N-[((5S)-3-{3-fluoro-4-[exo-(1R,5S)-3-(2-hydroxyethyl)-3-azabicyclo[3.1.0]hex-6-yl]phenyl}-2-oxo-1,3-oxazolidin-5-yl)methyl]acetamide] | 8 µg/mL (≈ 21.2 µM) | 4 µg/mL (≈ 10.6 µM) | 1 µg/mL (≈ 2.65 µM)
CC(=O)NC[C@H]1CN(c2ccc([C@H]3[C@@H]4CN(CCC#N)C[C@@H]43)c(F)c2)C(=O)O1 [Example 48, N-[((5S)-3-{3-fluoro-4-[exo-(1R,5S)-3-(2-cyanoethyl)-3-azabicyclo[3.1.0]hex-6-yl]phenyl}-2-oxo-1,3-oxazolidin-5-yl)methyl]acetamide] | 16 µg/mL (≈ 41.4 µM) | 4 µg/mL (≈ 10.4 µM) | 1 µg/mL (≈ 2.59 µM)
CC(=O)NC[C@H]1CN(c2ccc([C@H]3[C@@H]4CN(N(C)C)C[C@@H]43)c(F)c2)C(=O)O1 [Example 49, N-[((5S)-3-{3-fluoro-4-[exo-(1R,5S)-3-dimethylamino-3-azabicyclo[3.1.0]hex-6-yl]phenyl}-2-oxo-1,3-oxazolidin-5-yl)methyl]acetamide] | > 64 µg/mL | > 64 µg/mL | > 64 µg/mL
CCC(=O)NC[C@H]1CN(c2ccc([C@H]3[C@@H]4C[S+]([O-])C[C@@H]43)c(F)c2)C(=O)O1 (stereo partly drawn) [Example 50, N-[((5S)-3-{3-fluoro-4-[exo-(1R,5S)-3-oxido-3-thiabicyclo[3.1.0]hex-6-yl]phenyl}-2-oxo-1,3-oxazolidin-5-yl)methyl]proyanamide] | 4 µg/mL (≈ 10.5 µM) | 2 µg/mL (≈ 5.26 µM) | 1 µg/mL (≈ 2.63 µM)
O=C(NC[C@H]1CN(c2ccc([C@H]3[C@@H]4C[S+]([O-])C[C@@H]43)c(F)c2)C(=O)O1)C1CC1 (stereo partly drawn) [Example 52, N-[((5S)-3-{3-fluoro-4-[exo-(1R,5S)-3-oxido-3-thiabicyclo[3.1.0]hex-6-yl]phenyl}-2-oxo-1,3-oxazolidin-5-yl)methyl]cyclopropanecarboxamide] | 4 µg/mL (≈ 10.2 µM) | 4 µg/mL (≈ 10.2 µM) | 1 µg/mL (≈ 2.55 µM)
O=C(NC[C@H]1CN(c2ccc([C@H]3[C@@H]4CS(=O)(=O)C[C@@H]43)c(F)c2)C(=O)O1)C1CC1 [Example 53, N-[((5S)-3-{3-fluoro-4-[exo-(1R,5S)-3,3-dioxido-3-thiabicyclo[3.1.0]hex-6-yl]phenyl}-2-oxo-1,3-oxazolidin-5-yl)methyl]cyclopropanecarboxamide] | 4 µg/mL (≈ 9.79 µM) | 4 µg/mL (≈ 9.79 µM) | 2 µg/mL (≈ 4.9 µM)
CC(F)(F)C(=O)NC[C@H]1CN(c2ccc([C@H]3[C@@H]4C[S+]([O-])C[C@@H]43)c(F)c2)C(=O)O1 (stereo partly drawn) [Example 54, 2,2-difluoro-N-[((5S)-3-{3-fluoro-4-[exo-(1R,5S)-3-oxido-3-thiabicyclo[3.1.0]-6-yl]phenyl}-2-oxo-1,3-oxazolidin-5-yl)methyl]propanamide] | 4 µg/mL (≈ 9.61 µM) | 8 µg/mL (≈ 19.2 µM) | 4 µg/mL (≈ 9.61 µM)
CC(F)(F)C(=O)NC[C@H]1CN(c2ccc([C@H]3[C@@H]4CS(=O)(=O)C[C@@H]43)c(F)c2)C(=O)O1 [Example 55, 2,2-difluoro-N-[((5S)-3-{3-fluoro-4-[exo-(1R,5S)-3,3-dioxido-3-thiabicyclo[3.1.0]hex-6-yl]phenyl}-2-oxo-1,3-oxazolidin-5-yl)methyl]propanamide] | 16 µg/mL (≈ 37 µM) | 8 µg/mL (≈ 18.5 µM) | 2 µg/mL (≈ 4.63 µM)
O=C(NC[C@H]1CN(c2ccc([C@H]3[C@@H]4C[S+]([O-])C[C@@H]43)c(F)c2)C(=O)O1)C1CCC1 (stereo partly drawn) [Example 56, N-[((5S)-3-{3-fluoro-4-[exo-(1R,5S)-3-oxido-3-thiabicyclo[3.1.0]hex-6-yl]phenyl}-2-oxo-1,3-oxazolidin-5-yl)methyl]cyclobutanecarboxamide] | 16 µg/mL (≈ 39.4 µM) | 4 µg/mL (≈ 9.84 µM) | 2 µg/mL (≈ 4.92 µM)
O=C(NC[C@H]1CN(c2ccc([C@H]3[C@@H]4CS(=O)(=O)C[C@@H]43)c(F)c2)C(=O)O1)C1CCC1 [Example 57, N-[((5S)-3-{3-fluoro-4-[exo-(1R,5S)-3,3-dioxido-3-thiabicyclo[3.1.0]hex-6-yl]phenyl}-2-oxo-1,3-oxazolidin-5-yl)methyl]cyclobutanecarboxamide] | 32 µg/mL (≈ 75.7 µM) | 8 µg/mL (≈ 18.9 µM) | 2 µg/mL (≈ 4.73 µM)
O=C(NC[C@H]1CN(c2cc(F)c([C@H]3[C@@H]4C[S+]([O-])C[C@@H]43)c(F)c2)C(=O)O1)C1CC1 (stereo partly drawn) [Example 61, N-[((5S)-3-{3,5-difluoro-4-[exo-(1R,5S)-3-oxido-3-thiabicyclo[3.1.0]hex-6-yl]phenyl}-2-oxo-1,3-oxazolidin-5-yl)methyl]cyclopropanecarboxamide] | 8 µg/mL (≈ 19.5 µM) | 2 µg/mL (≈ 4.87 µM) | 1 µg/mL (≈ 2.44 µM)
NC(=O)N1C[C@@H]2[C@H](C1)[C@H]2c1c(F)cc(N2C[C@H](Cn3ccnn3)OC2=O)cc1F [Example 65, exo-(1R,5S)-6-{2,6-difluoro-4-[(5R)-2-oxo-5-(1H-1,2,3-triazol-1-ylmethyl)-1,3-oxazolidin-3-yl]phenyl}-3-azabicyclo[3.1.0]hexane-3-carboxamide] | 16 µg/mL (≈ 39.6 µM) | 2 µg/mL (≈ 4.95 µM) | 2 µg/mL (≈ 4.95 µM)
O=C(CO)NC[C@H]1CN(c2ccc([C@H]3[C@@H]4C[S+]([O-])C[C@@H]43)c(F)c2)C(=O)O1 (stereo partly drawn) [Example 66, N-[((5S)-3-{3-fluoro-4-[exo-(1R,5S)-3-oxido-3-thiabicyclo[3.1.0]hex-6-yl]phenyl}-2-oxo-1,3-oxazolidin-5-yl)methyl]-2-hydroxyacetamide] | 8 µg/mL (≈ 20.9 µM) | 4 µg/mL (≈ 10.5 µM) | 2 µg/mL (≈ 5.23 µM)
O=C(CO)NC[C@H]1CN(c2ccc([C@H]3[C@@H]4CS(=O)(=O)C[C@@H]43)c(F)c2)C(=O)O1 [Example 67, N-[((5S)-3-{3-fluoro-4-{exo-(1R,5 S)-3,3-dioxido-3-thiabicyclo[3.1.0]hex-6-yl]phenyl}-2-oxo-1,3-oxazolidin-5-yl)methyl]-2-hydroxyacetamide] | 4 µg/mL (≈ 10 µM) | 4 µg/mL (≈ 10 µM) | 4 µg/mL (≈ 10 µM)

Results, then the molecule that gave them:

MIC (H. influenzae 30063) | MIC (S. aureus UC9213) | MIC (S. pneumoniae UC9912) | SMILES
8 µg/mL (≈ 20.2 µM) | 2 µg/mL (≈ 5.04 µM) | 1 µg/mL (≈ 2.52 µM) | CCC(=O)NC[C@H]1CN(c2ccc([C@H]3[C@@H]4CS(=O)(=O)C[C@@H]43)c(F)c2)C(=O)O1 [Example 51, N-[((5S)-3-{4-[exo-(1R,5S)-3,3-dioxido-3-thiabicyclo[3.1.0]hex-6-yl]-3-fluorophenyl}-2-oxo-1,3-oxazolidin-5-yl)methyl]propanamide]
2 µg/mL (≈ 5.02 µM) | 1 µg/mL (≈ 2.51 µM) | 1 µg/mL (≈ 2.51 µM) | CCC(=O)NC[C@H]1CN(c2cc(F)c([C@H]3[C@@H]4C[S+]([O-])C[C@@H]43)c(F)c2)C(=O)O1 (stereo partly drawn) [Example 58, N-[((5S)-3-{3,5-difluoro-4-[exo-(1R,5S)-3-oxido-3-thiabicyclo[3.1.0]hex-6-yl]phenyl}-2-oxo-1,3-oxazolidin-5-yl)methyl]propanamide]
4 µg/mL (≈ 9.65 µM) | 1 µg/mL (≈ 2.41 µM) | 1 µg/mL (≈ 2.41 µM) | CCC(=O)NC[C@H]1CN(c2cc(F)c([C@H]3[C@@H]4CS(=O)(=O)C[C@@H]43)c(F)c2)C(=O)O1 [Example 59, N-[((5S)-3-{3,5-difluoro-4-[exo-(1R,5S)-3,3-dioxido-3-thiabicyclo[3.1.0]hex-6-yl]phenyl}-2-oxo-1,3-oxazolidin-5-yl)methyl]propanamide]
16 µg/mL (≈ 35.5 µM) | 8 µg/mL (≈ 17.8 µM) | 2 µg/mL (≈ 4.44 µM) | CC(F)(F)C(=O)NC[C@H]1CN(c2cc(F)c([C@H]3[C@@H]4CS(=O)(=O)C[C@@H]43)c(F)c2)C(=O)O1 [Example 60, 2,2-difluoro-N-[((5S)-3-{3,5-difluoro-4-[exo-(1R,5S)-3,3-dioxido-3-thiabicyclo[3.1.0]hex-6-yl]phenyl}-2-oxo-1,3-oxazolidin-5-yl)methyl]propanamide]
8 µg/mL (≈ 18.8 µM) | 4 µg/mL (≈ 9.38 µM) | 1 µg/mL (≈ 2.34 µM) | O=C(NC[C@H]1CN(c2cc(F)c([C@H]3[C@@H]4CS(=O)(=O)C[C@@H]43)c(F)c2)C(=O)O1)C1CC1 [Example 62]
8 µg/mL (≈ 19.6 µM) | 2 µg/mL (≈ 4.9 µM) | 1 µg/mL (≈ 2.45 µM) | CCC(=O)NC[C@H]1CN(c2cc(F)c([C@H]3[C@@H]4CN(C(N)=O)C[C@@H]43)c(F)c2)C(=O)O1 [Example 63, exo-(1R,5S)-6-(4-{(5S)-5-[(propanoylamino)methyl]-2-oxo-1,3-oxazolidin-3-yl}-2,6-difluorophenyl)-3-azabicyclo[3.1.0]hexane-3-carboxamide]
8 µg/mL (≈ 18.9 µM) | 4 µg/mL (≈ 9.45 µM) | 2 µg/mL (≈ 4.72 µM) | CCC(=O)NC[C@H]1CN(c2cc(F)c([C@H]3[C@@H]4CN(C(=O)CO)C[C@@H]43)c(F)c2)C(=O)O1 [Example 64, N-[((5S)-3-{3,5-difluoro-4-[exo-(1R,5S)-3-glycoloyl-3-azabicyclo[3.1.0]hex-6-yl]phenyl]-2-oxo-1,3-oxazolidin-5-yl)methyl]propanamide]
